Patent US20240425814A1, “SALTS OF DIPEPTIDES AND THEIR USES IN CELL CULTURE” (Evonik Operations GmbH, priority 2021, published 2024)
Where a name gives a salt, the structure may show the parent alone. Read-outs that look alike come from different tables or passages of the source. Positions of bridges follow the written chain, without caps; N, C: chain ends. Residues, ends and D or L forms follow the SMILES beside them. Chains are numbered I, II in the order given.

Assays:
[1] = tested on: CHO-K1 cells; assay: In vitro cytotoxicity / viability assay (MTS) on CHO-K1 cells; assay type: cell-based, Chinese hamster; details: high concentration (tested at 1 and 10 mM), 24 h with dipeptide, samples adjusted to pH 7, vs control medium without (Lys-Cys)2
Protocol: (§1) • The assay was performed with human bone marrow stromal cells, mesenchymal stem cells (MSC) or Chinese hamster ovary cells (subclone K1), respectively. In a first step, the cells were seeded in a transparent 96-well cell culture plate and incubated for 24 h in a CO2-Incubator (37° C., 5% CO2, 95% humidity) at a cell density of 10.000 cells/well and in a final volume of 100 μl/well. After the resting time of 24 hours the supernatants were discarded, and prepared dipeptide test compounds were added to the cells in a final volume of 100 μl/well. The control was rested in medium without dipeptide.
(§2) All samples were dissolved directly in associated cell culture medium. pH values of the samples were adjusted to pH 7 in advance, to exclude an influence on the cell viability due to a potentially lower pH value.
(§3) Different salt forms of (Lys-Cys)2 were tested in two different concentrations and each sample was tested in triplicates. […]
(§4) As a result of the reduction of MTS into a formazan product by metabolically active cells, an absorbance signal of formazan could be measured at a wavelength of 490 nm in a multiplate reader. […]
(§5) CHO-K1 as well as MSC cells were cultured for 24 hours before the addition of different (Lys-Cys)2 salts. […] After 24-hour cultivation with the dipeptides, the cell viability was assessed using the CellTiter 96® AQueous Non-Radioactive Cell Proliferation Assay (MTS).

[2] = Storage stability test of salt forms (HPLC); assay type: physicochemical
Protocol: Storage stability tests at 25° C. and at 60° C. were conducted with the different salt forms of the (Lys-Cys) 2. Stability was measured with a HPLC method.

[3] = tested on: human bone marrow stromal cells, mesenchymal stem cells (MSC); assay: In vitro cytotoxicity / viability assay (MTS) on mesenchymal stem cells; assay type: cell-based; details: high concentration (tested at 1 and 10 mM), 24 h with dipeptide, samples adjusted to pH 7, vs control medium without (Lys-Cys)2
Protocol: as §1, §2, §3, §4, §5

Row | SMILES | cell viability [1] | storage stability [2] | cell viability [3] | storage stability ([2]; storage at 25° C. and at 60° C., HPLC, compared with the chloride free, basic form)
1 | Cl.Cl.Cl.Cl.NCCCC[C@H](N)C(=O)N[C@@H](CSSC[C@H](NC(=O)[C@@H](N)CCCCN)C(=O)O)C(=O)O [4 HCl form, N,N′-di-L-lysyl-L-cystine tetrahydrochloride] (I: H-Lys-Cys-OH / II: H-Lys-Cys-OH; disulfide I:2-II:2) | reduced cell viability | significantly more stable |  | 
2 | NCCCC[C@H](N)C(=O)N[C@@H](CSSC[C@H](NC(=O)[C@@H](N)CCCCN)C(=O)O)C(=O)O [2 HCl form, N,N′-di-L-lysyl-L-cystine dihydrochloride] (I: H-Lys-Cys-OH / II: H-Lys-Cys-OH; disulfide I:2-II:2) | improved cell viability |  | improved cell viability | significantly more stable
